Patent US9815839B2, “N-(1-(substituted-phenyl)ethyl)-9H-purin-6-amines as PI3K inhibitors” (Incyte Corporation, priority 2010, dated 2017)
Where a name gives a salt, the structure may show the parent alone.

Experiments:
[1] = tested on: Pfeiffer cell line (diffuse large B cell lymphoma); experiment: Pfeiffer cell proliferation assay; assay type: cell-based; settings: Pfeiffer cells, 3-4 days plus 12 hours [3H]-thymidine incorporation
Experimental: Example C: Pfeiffer Cell Proliferation Assay
Pfeiffer cell line (diffuse large B cell lymphoma) was purchased from ATCC (Manassas, Va.) and maintained in the culture medium recommended (RPMI and 10% FBS). To measure the anti-proliferation activity of the compounds, the Pfeiffer cells were plated with the culture medium (2×10^3 cells/well/per 200 μl) into 96-well ultra-low binding plates (Corning, Corning, N.Y.), in the presence or absence of a concentration range of test compounds. After 3-4 days, [^3H]-thymidine (1 μCi/well) (PerkinElmer, Boston, Mass.) in PBS was then added to the cell culture for an additional 12 hours before the incorporated radioactivity was separated by filtration with water through GF/B filters (Packard Bioscience, Meridenj, Conn.) and measured by liquid scintillation counting with a TopCount (Packard Bioscience).

[2] = target: T1, PI3Kδ (p110δ/p85α) (Homo sapiens, UniProt O00329); experiment: PI3Kδ scintillation proximity assay; assay type: biochemical; settings: 20 μM ATP, 4 nM PI3Kδ
T1 construct: purchased Millipore (Bedford, Mass.)
Method in brief: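 Radiometric SPA: product captured on WGA beads after EDTA quench and counted, IC50 fitted against log inhibitor concentration. Reactions ran 210 min at room temperature with 4 nM PI3Kδ (p110δ/p85α), 20 μM each PIP2 and ATP plus 33P-ATP, pH 6.7 MOPS buffer, 0.5% DMSO final.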

T1 sequence (O00329 whole entry, species assumed): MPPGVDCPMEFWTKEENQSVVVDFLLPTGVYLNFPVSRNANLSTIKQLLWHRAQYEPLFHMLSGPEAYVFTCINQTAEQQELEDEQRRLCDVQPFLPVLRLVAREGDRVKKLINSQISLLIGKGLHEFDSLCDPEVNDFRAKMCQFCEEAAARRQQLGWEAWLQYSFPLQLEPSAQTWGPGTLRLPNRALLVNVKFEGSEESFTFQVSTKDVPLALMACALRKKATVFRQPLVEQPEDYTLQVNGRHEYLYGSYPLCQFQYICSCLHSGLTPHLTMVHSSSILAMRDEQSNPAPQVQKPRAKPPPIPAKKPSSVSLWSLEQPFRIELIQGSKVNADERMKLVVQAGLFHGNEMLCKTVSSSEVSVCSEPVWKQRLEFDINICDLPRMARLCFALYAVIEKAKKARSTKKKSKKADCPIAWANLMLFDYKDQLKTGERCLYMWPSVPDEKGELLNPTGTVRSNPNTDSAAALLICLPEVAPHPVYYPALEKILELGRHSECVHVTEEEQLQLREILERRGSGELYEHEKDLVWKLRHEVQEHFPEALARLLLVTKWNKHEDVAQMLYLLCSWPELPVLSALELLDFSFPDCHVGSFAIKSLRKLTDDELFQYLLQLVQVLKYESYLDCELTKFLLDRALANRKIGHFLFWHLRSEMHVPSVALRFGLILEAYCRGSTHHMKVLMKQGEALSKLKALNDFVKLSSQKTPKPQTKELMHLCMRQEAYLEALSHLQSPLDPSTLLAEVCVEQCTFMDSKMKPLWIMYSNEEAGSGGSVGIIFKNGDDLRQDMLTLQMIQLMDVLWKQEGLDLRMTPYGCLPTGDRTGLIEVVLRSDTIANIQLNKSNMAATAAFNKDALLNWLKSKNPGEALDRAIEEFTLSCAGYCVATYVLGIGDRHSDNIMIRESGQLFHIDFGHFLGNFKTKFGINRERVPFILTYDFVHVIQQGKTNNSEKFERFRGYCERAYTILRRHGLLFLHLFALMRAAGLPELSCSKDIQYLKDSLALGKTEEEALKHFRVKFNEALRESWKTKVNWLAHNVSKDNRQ
T1 sequence (P27986 whole entry partner, species assumed): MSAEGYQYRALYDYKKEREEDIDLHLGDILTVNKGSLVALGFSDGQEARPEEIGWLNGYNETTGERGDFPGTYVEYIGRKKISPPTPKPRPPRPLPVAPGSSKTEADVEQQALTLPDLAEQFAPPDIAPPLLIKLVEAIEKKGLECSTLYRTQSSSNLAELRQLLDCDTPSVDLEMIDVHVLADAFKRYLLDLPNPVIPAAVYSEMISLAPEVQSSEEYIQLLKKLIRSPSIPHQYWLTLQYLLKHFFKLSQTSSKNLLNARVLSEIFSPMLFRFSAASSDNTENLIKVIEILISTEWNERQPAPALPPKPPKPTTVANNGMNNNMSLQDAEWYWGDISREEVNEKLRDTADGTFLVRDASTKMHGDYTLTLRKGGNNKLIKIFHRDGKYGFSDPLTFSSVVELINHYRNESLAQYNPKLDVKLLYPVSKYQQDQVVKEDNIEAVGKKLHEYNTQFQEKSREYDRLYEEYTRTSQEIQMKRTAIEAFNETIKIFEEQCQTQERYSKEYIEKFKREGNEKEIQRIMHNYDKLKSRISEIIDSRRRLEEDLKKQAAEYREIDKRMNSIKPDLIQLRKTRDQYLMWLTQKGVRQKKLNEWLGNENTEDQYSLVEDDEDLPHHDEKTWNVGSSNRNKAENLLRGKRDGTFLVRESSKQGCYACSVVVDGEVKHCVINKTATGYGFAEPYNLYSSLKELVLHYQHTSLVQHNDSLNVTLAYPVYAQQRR

Structure (SMILES)	IC50 ([1]; Homo sapiens, Pfeiffer) [µM]	IC50 [2] [µM]	IC50 [1] [µM]
Cc1c(Cl)cc(C(C)Nc2ncnc3[nH]cnc23)c(-c2cccc(F)c2)c1C#N (stereo not shown) [Example 1, 4-Chloro-3′-fluoro-3-methyl-6-[1-(9H-purin-6-ylamino)ethyl]biphenyl-2-carbonitrile]	0.5 to 1		
Cc1c(Cl)cc(C(C)Nc2ncnc3[nH]cnc23)c(-c2cccc(F)c2)c1C(N)=O (stereo not shown) [Example 2, 4-Chloro-3′-fluoro-3-methyl-6-[1-(9H-purin-6-ylamino)ethyl]biphenyl-2-carboxamide]	< 0.1	< 0.05	
Cc1c(Cl)cc(C(C)Nc2ncnc3[nH]cnc23)c(-c2cccc(F)c2)c1[N+](=O)[O-] (stereo not shown) [Example 3, N-[1-(4-chloro-3′-fluoro-5-methyl-6-nitrobiphenyl-2-yl)ethyl]-9H-purin-6-amine]	> 1	0.1 to 0.25	
Cc1c(Cl)cc(C(C)Nc2ncnc3[nH]cnc23)c(-c2cccc(F)c2)c1N1CCCC1=O (stereo not shown) [Example 5, 1-{4-Chloro-3′-fluoro-3-methyl-6-[1-(9H-purin-6-ylamino)ethyl]biphenyl-2-yl}pyrrolidin-2-one]	< 0.1	< 0.05	
Cc1c(Cl)cc(C(C)Nc2ncnc3[nH]cnc23)c(-c2cc(F)cc(F)c2)c1N1CCCC1=O (stereo not shown) [Example 6, 1-{4-Chloro-3′,5′-difluoro-3-methyl-6-[1-(9H-purin-6-ylamino)ethyl]biphenyl-2-yl}pyrrolidin-2-one trifluoroacetate]	< 0.1	< 0.05	
Cc1c(Cl)cc(C(C)Nc2ncnc3[nH]cnc23)c(-c2cccc(F)c2)c1N1CCOC1=O (stereo not shown) [Example 7, 3-{4-Chloro-3′-fluoro-3-methyl-6-[1-(9H-purin-6-ylamino)ethyl]biphenyl-2-yl}-1,3-oxazolidin-2-one]	< 0.1	< 0.05	
Cc1c(Cl)cc(C(C)Nc2ncnc3[nH]cnc23)c(-c2cccc(F)c2)c1-c1nnn[nH]1 (stereo not shown) [Example 8, N-{1-[4-chloro-3′-fluoro-5-methyl-6-(1H-tetrazol-5-yl)biphenyl-2-yl]ethyl}-9H-purin-6-amine]	> 1	< 0.05	
CC(=O)Nc1c(C)c(Cl)cc(C(C)Nc2ncnc3[nH]cnc23)c1-c1cccc(F)c1 (stereo not shown) [Example 9, N-{4-chloro-3′-fluoro-3-methyl-6-[1-(9H-purin-6-ylamino)ethyl]biphenyl-2-yl}acetamide]	0.1 to 0.5	0.05 to 0.1	
COC(=O)N(C(=O)OC)c1c(C)c(Cl)cc(C(C)Nc2ncnc3[nH]cnc23)c1-c1cccc(F)c1 (stereo not shown) [Example 10, Dimethyl {4-chloro-3′-fluoro-3-methyl-6-[1-(9H-purin-6-ylamino)ethyl]biphenyl-2-yl}imidodicarbonate]	0.1 to 0.5	< 0.05	
Cc1c(Cl)cc(C(C)Nc2ncnc3[nH]cnc23)c(-c2cccc(F)c2)c1-n1cnnc1 (stereo not shown) [Example 11, N-{1-[4-chloro-3′-fluoro-5-methyl-6-(4H-1,2,4-triazol-4-yl)biphenyl-2-yl]ethyl}-9H-purin-6-amine]	< 0.1	< 0.05	
Cc1c(Cl)cc(C(C)Nc2ncnc3[nH]cnc23)c(-c2cccc(F)c2)c1N(S(C)(=O)=O)S(C)(=O)=O (stereo not shown) [Example 12, N-{4-chloro-3′-fluoro-3-methyl-6-[1-(9H-purin-6-ylamino)ethyl]biphenyl-2-yl}-N-(methylsulfonyl)methanesulfonamide]	< 0.1	< 0.05	
Cc1c(Cl)cc(C(C)Nc2ncnc3[nH]cnc23)c(-c2ccccc2)c1-c1cc(F)nc(F)c1 (stereo not shown) [Example 13, N-{1-[4-chloro-6-(2,6-difluoropyridin-4-yl)-5-methylbiphenyl-2-yl]ethyl}-9H-purin-6-amine]	< 0.1	< 0.05	
Cc1c(Cl)cc(C(C)Nc2ncnc3[nH]cnc23)c(-c2ccccc2)c1-c1ccc(S(C)(=O)=O)cc1 (stereo not shown) [Example 14, N-{1-[5′-chloro-6′-methyl-4-(methylsulfonyl)-1,1′:2′,1″-terphenyl-3′-yl]ethyl}-9H-purin-6-amine]	< 0.1	< 0.05	
Cc1c(Cl)cc(C(C)Nc2ncnc3[nH]cnc23)c(-c2ccccc2)c1-c1cnc(N(C)C)nc1 (stereo not shown) [Example 15, N-(1-{4-chloro-6-[2-(dimethylamino)pyrimidin-5-yl]-5-methylbiphenyl-2-yl}ethyl)-9H-purin-6-amine]	< 0.1	< 0.05	
Cc1c(Cl)cc(C(C)Nc2ncnc3[nH]cnc23)c(-c2ccccc2)c1-c1ccc(C(=O)NC2CC2)cc1 (stereo not shown) [Example 16, 5′-chloro-N-cyclopropyl-6′-methyl-3′-[1-(9H-purin-6-ylamino)ethyl]-1,1′:2′,1″-terphenyl-4-carboxamide]	< 0.1	< 0.05	
Cc1c(Cl)cc(C(C)Nc2ncnc3[nH]cnc23)c(-c2ccccc2)c1-c1cnc(N)nc1 (stereo not shown) [Example 17, N-{1-[6-(2-aminopyrimidin-5-yl)-4-chloro-5-methylbiphenyl-2-yl]ethyl}-9H-purin-6-amine]	< 0.1	< 0.05	

Results, then the compound that gave them:

IC50 ([1]; Homo sapiens, Pfeiffer) [µM]	IC50 [2] [µM]	IC50 [1] [µM]	Structure (SMILES)
0.1 to 0.5	0.25 to 0.5		COc1c(C(C)Nc2ncnc3[nH]cnc23)cc(Cl)c(C)c1N1CCCC1=O (stereo not shown) [Example 18, 1-{3-Chloro-6-methoxy-2-methyl-5-[1-(9H-purin-6-ylamino)ethyl]phenyl}pyrrolidin-2-one]
< 0.1	< 0.05		Cc1c(Cl)cc(C(C)Nc2ncnc3[nH]cnc23)c(-c2cc(F)cc(F)c2)c1C(N)=O (stereo not shown) [Example 19, 4-Chloro-3′,5′-difluoro-3-methyl-6-[1-(9H-purin-6-ylamino)ethyl]biphenyl-2-carboxamide]
0.1 to 0.5	< 0.05		COc1c(C(C)Nc2ncnc3[nH]cnc23)cc(Cl)c(C)c1-c1cnc(N(C)C)nc1 (stereo not shown) [Example 20, N-(1-{5-chloro-3-[2-(dimethylamino)pyrimidin-5-yl]-2-methoxy-4-methylphenyl}ethyl)-9H-purin-6-amine]
< 0.1	< 0.05		COc1c(C(C)Nc2ncnc3[nH]cnc23)cc(Cl)c(C)c1-c1ccnn1C (stereo not shown) [Example 21, N-{1-[5-chloro-2-methoxy-4-methyl-3-(1-methyl-1H-pyrazol-5-yl)phenyl]ethyl}-9H-purin-6-amine]
< 0.1	< 0.05		COc1c(C(C)Nc2ncnc3[nH]cnc23)cc(Cl)c(C)c1-c1c(C)noc1C (stereo not shown) [Example 22, N-{1-[5-chloro-3-(3,5-dimethylisoxazol-4-yl)-2-methoxy-4-methylphenyl]ethyl]-9H-purin-6-amine]
< 0.1	< 0.05		COc1ncc(-c2c(C)c(Cl)cc(C(C)Nc3ncnc4[nH]cnc34)c2OC)cn1 (stereo not shown) [Example 23, N-{1-[5-chloro-2-methoxy-3-(2-methoxypyrimidin-5-yl)-4-methylphenyl]ethyl}-9H-purin-6-amine]
0.1 to 0.5	< 0.05		Cc1c(Cl)cc(C(C)Nc2ncnc3[nH]cnc23)c(-c2ccccc2)c1-c1ccc(C#N)cc1 (stereo not shown) [Example 24, 5′-chloro-6′-methyl-3′-[1-(9H-purin-6-ylamino)ethyl]-1,1′:2′,1″-terphenyl-4-carbonitrile]
< 0.1	< 0.05		COc1ncc(-c2c(C)c(Cl)cc(C(C)Nc3ncnc4[nH]cnc34)c2-c2ccccc2)cn1 (stereo not shown) [Example 25, N-{1-[4-chloro-6-(2-methoxypyrimidin-5-yl)-5-methylbiphenyl-2-yl]ethyl}-9H-purin-6-amine]
< 0.1			COc1c(C(C)Nc2ncnc3[nH]cnc23)cc(Cl)c(C)c1-c1ccc(S(C)(=O)=O)cc1 (stereo not shown) [Example 32, N-{1-[5-chloro-2-methoxy-6-methyl-4′-(methylsulfonyl)biphenyl-3-yl]ethyl}-9H-purin-6-amine]
< 0.1			COc1c(C(C)Nc2ncnc3[nH]cnc23)cc(Cl)c(C)c1-c1cnc(N)nc1 (stereo not shown) [Example 33, N-{1-[3-(2-aminopyrimidin-5-yl)-5-chloro-2-methoxy-4-methylphenyl]ethyl}-9H-purin-6-amine]
> 1		0.5 to 1	COc1c(C(C)Nc2ncnc3[nH]cnc23)cc(Cl)c(C)c1-c1cc(F)ccc1F (stereo not shown) [Example 50, N-[1-(5-chloro-2′,5′-difluoro-2-methoxy-6-methylbiphenyl-3-yl)ethyl]-9H-purin-6-amine]
< 0.1			COc1c(C(C)Nc2ncnc3[nH]cnc23)cc(Cl)c(C)c1-c1cncc(C#N)c1 (stereo not shown) [Example 53, 5-{3-chloro-6-methoxy-2-methyl-5-[1-(9H-purin-6-ylamino)ethyl]phenyl}nicotinonitrile]
< 0.1			Cc1c(Cl)cc(C(C)Nc2ncnc3[nH]cnc23)c(-c2cccc(F)c2)c1-c1cnn(C)c1 (stereo not shown) [Example 73, N-{1-[4-chloro-3′-fluoro-5-methyl-6-(1-methyl-1H-pyrazol-4-yl)biphenyl-2-yl]ethyl}-9H-purin-6-amine]
> 1			COc1c(C(C)Nc2ncnc3[nH]cnc23)cc(Cl)c(C)c1-c1cc(C(F)(F)F)ccc1F (stereo not shown) [Example 86, N-{1-[5-chloro-2′-fluoro-2-methoxy-6-methyl-5′-(trifluoromethyl)biphenyl-3-yl]ethyl]-9H-purin-6-ami]
	< 0.05		CCOc1c(C(C)Nc2ncnc3[nH]cnc23)cc(C#N)c(F)c1-c1ccc(C(=O)N(C)C)nc1 (stereo not shown) [Example 211, 5-{3-Cyano-6-ethoxy-2-fluoro-5-[1-(9H-purin-6-ylamino)ethyl]phenyl}-N,N-dimethylpyridine-2-carboxamide bis(trifluoroacetate)]
